The values below come from patent publication US5219867A, “Platelet aggregation inhibitory agents” (priority 1992, dated 1993).

What all share (type): cell-based
For test [1], the system named is cytosolic ionized calcium in human platelets. Description: Inhibition of collagen-induced rise in cytosolic ionized calcium (aequorin luminescence). The following applies: Homo sapiens, Platelet, collagen-induced, 1mM [Ca2+]o (n = 4); read-out: Ica50 ± S.E. Collagen-induced (50% inhibition of collagen-induced rise in cytosolic ionized calcium). How it is done:
(§1) Procedure for Cytosolic Ionized Calcium Determination. The basic procedure of Yamaguchi, et al. (Thromb. Res., Vol. 44, Pages 165-174, 1986) was followed. Blood was collected from six blood donors, aged 24-38 years, who had fasted overnight and affirmed abstinence from alcohol, caffeine and medications of any kind for a period of at least one week prior to donation. […] Platelets were collected (800 g, 15 min), resuspended in and washed (800 g, 15 min) with HEPES-buffered saline (140 mM NaCl, 2.7 mM KCl, 0.1% bovine albumin, 0.5% glucose, 3.8 mM HEPES, pH 7.6) with EGTA (5 mM) and PGE1 (1 μM). The platelet pellet was resuspended in 90 μl of the same buffer and added to 20μl of 3 mg/ml aequorin solution in a 1.5 ml Eppendorf centrifuge tube. Six 1 μl aliquots of DMSO were added at 90 second intervals with brief, gentle mixing on a Vortex mixer and the platelet suspension was incubated 2 minutes after the last addition. One ml of HEPES-buffered saline was added, gently mixed, and again incubated for 2 minutes. The platelets were pelleted (1000 g, 30 sec), resuspended in HEPES-buffered saline to which was added either 1 mM Mg Cl2, (calcium-free buffer) or 1 mM Mg Cl2 and 1 mM Ca Cl2 (calcium buffer), depending on the experiment. The platelet count was adjusted to 3-4×10^5 platelets/μl.
(§2) The Platelet Ionized Calcium Aggregometer (Chrono-Log Corp., Ltd., Havertown, Pa.) was used to obtain simultaneous aggregation and luminescence data under the following experimental conditions: (1) platelet suspension, 1 ml, was equilibrated at 37° C. with stirring at 1100 rpm; (2) 100 μl (1.2 μg) of fibrinogen was added; (3) the vehicle (95% ethanol) or the test compound in vehicle was added; (4) when needed, 10 μl of the desired concentration of EGTA was added 30 seconds prior to addition of the agonist; then (5) the agonist (Collagen, 5 μg or 20 μg) was added and the time noted. At one minute after addition of the agonist in Channel 1, a platelet sample containing fibrinogen in Channel 2 was lysed with 10 μl of a 1:1 solution of Triton X-100 (final concentration 0.005%) 10 mM CaCl2 (final concentration 0.5 mM). Treated and control […] data were corrected for time dependent decay of fluorescence using data from the untreated lysed controls.
(§3) Normally 4 compound-treated samples (at 4 different concentrations) interspersed with 3 control samples were evaluated at 4.5 minute intervals starting 18-23 minutes after the DMSO treatment. The Ia50 values were calculated as described earlier. The compound concentrations effecting 50% inhibition (Ica50) of collagen-induced cytosolic ionized calcium values was determined by linear regression analysis.
Compounds I-rac, (+)-I,(IC) and (-)-I(IA) were evaluated. The Ia50 (collagen-induced aggregation) and Ica50 (compound concentration required to inhibit by 50% the collagen-induced rise in cytosolic ionized calcium)values determined with platelet suspensions in HEPES-buffered saline containing 1.0 mM CaCl2 were as follows:
Collagen-stimulation of platelets suspended in media containing 1.0 mM of Ca^2+ (FIG. 13) or 1.0 mM (FIG. 14A) or 2.0 mM (FIG. 14B) EGTA (a calcium chelator) gave […] cytosolic ionized calcium peak (aequorin-indicated luminescence). Contrarily, two phases of Ca^2+ mobilization were observed when aequorin-loaded human platelets suspended in a medium containing 0.1 mM EGTA were stimulated with collagen (FIG. 14, designation D). The first corresponded to platelet shape change and the second peak to aggregation. […] The platelet suspension (1.0 ml) was pre-incubated with 1.0 μl of (A) 95% ethanol, (B) a solution of Compound I (14.59 μM) in 95% ethanol, or (C) a solution of Compound I (23.87 μM) in 95% ethanol. Collagen (20 μg) was added at time indicated by the arrows. Luminescence was again recorded at a gain of 0.5. […] Accordingly, the stereo-selective inhibitory properties of the compounds of the present invention appear to be mediated through the inhibition of [Ca^2+ ].

A further test concerns human platelets. Put plainly: Inhibition of collagen-induced aggregation, washed aequorin-loaded platelet suspension. To be noted: Homo sapiens, Platelet; collagen-induced aggregation (n = 4); HEPES-buffered saline, 1.0 mM CaCl2; read-out: Ia50 ± S.E. Collagen-induced. How it is done: as §1, §2, §3
Compounds I-rac, (+)-I,(IC) and (-)-I(IA) were evaluated. The Ia50 (collagen-induced aggregation) and Ica50 (compound concentration required to inhibit by 50% the collagen-induced rise in cytosolic ionized calcium)values determined with platelet suspensions in HEPES-buffered saline containing 1.0 mM CaCl2 were as follows: […]

The test system of the next test is human blood platelets. Description: In vitro inhibition of ADP-induced human platelet aggregation (platelet-rich plasma, aggregometer). To be noted: Homo sapiens, Platelet. How it is done:
Procedure for Determining In Vitro Platelet Aggregation-Inhibitory Activity. Adenosine diphosphate (ADP) was used to induce platelet aggregation and was utilized as the sodium salt. A 10 mM stock solution was prepared fresh before each use in modified Tyrode's buffer and working dilutions were prepared with modified Tyrode's buffer immediately prior to use. The buffer contained NaCl (137.00 mM), KCl (2.70 mM), NaHCO3 (11.90 mM), NaH2 PO4 H2 O (0.36 mM) and glucose (5.60 mM) in redistilled water. Adjustment to pH 7.4 was effected by addition of 1N HCl.
The blood was transferred into plastic centrifuge tubes containing 3.2% sodium citrate (blood/citrate ratio 8:1) and centrifuged at 120Xg for 15 minutes at 23° C., yielding platelet-rich plasma (PRP); platelet-poor-plasma (PPP) was obtained by centrifugation of citrated whole blood at 1,100Xg for 15 min at 23° C. The platelet count of PRP was determined and adjusted to a final count of 300,000 platelet per mm^3 by dilution with autologous PPP. […] The plasma so obtained was transferred using a 1.0 ml Centaur pipette into a 50 ml polyethylene centrifuge tube. In order to maintain plasma pH in the appropriate range, the air in the tubes are displaced gently (2 minutes) with a 5% (CO2 -95% air (v/v) mixture and the tube capped. The plasma was maintained at 37° C. in a water bath until used in the aggregation experiments.
Assays of platelet aggregation were performed at least in duplicate, using plasma acquired from different donors, employing a method developed by Quintana, et al. (Quintana, et al., Relationships Between the Chemical Constitution of Carbamoylpiperidines and Related Compounds, and Their Inhibition of ADP-Induced Human Blood Platelet Aggregation, Thromb. Res. Vol. 22, Pages 665-680, 1981); Quintana, et al., Effects of Ethanol and of Other Factors on ADP-Induced Aggregation of Human Blood Platelets in Vitro, Thromb. Res., Vol. 20, Pages 405-415, 1980) (cf. Born, Nature, Vol. 194, Pages 927-929, 1962) and Mustard, et al., J. Lab. Clin. Med., Vol. 64, Pages 548-559, 1964).
Initially, in each experiment, 0.45-ml aliquots of PRP were placed in siliconized cuvettes and stirred (1,100 rpm) in the aggregometer at 37° C. to ascertain the absence of spontaneous aggregation. Appropriate ADP solutions (50 μl) were subsequently injected using a Hamilton microliter syringe to determine the minimal concentration eliciting maximal biphasic aggregation. […] In each case, the concentration of ADP so determined was used in eliciting aggregation throughout each specific set of aggregometric evaluations.
0.5 μl of a solution of the evaluant compound in redistilled 95% ethanol was injected into a stirred ([…]) 0.4-ml aliquot of plasma in a siliconized cuvette in the aggregometer-well (37° C). After 15 seconds, the cuvette was transferred to an incubator (also at 37° C.) and the contents held at this temperature, without stirring, until 2 minutes postinjection. The cuvette was then returned to the aggregometer-well, a base-line being recorded for 2 minutes to detect any spontaneous aggregation. At exactly 4 minutes after injection of the evaluant solution, 50 μl of the appropriate ADP solution was injected and aggregation recorded for 5.5 minutes. Evaluants were studied at least 4 different concentrations. Control experiments (ethanol in a final concentration of 0.095% v/v) were performed in conditions parallel with those involving the respective evaluants, and were initiated either 1 minute prior to or 1 minute after the start of experiments employing the test compounds. This permitted injections to be made precisely at the specified times.

Where two headings read alike, the source gives them in different places.

Regarding `CCN(CC)C(=O)[C@@H]1CCCN(Cc2ccc(CN3CCC[C@H](C(=O)N(CC)CC)C3)cc2)C1` [IB], the IC50 in test [1] is 24.3 µM; in the test on human platelets it was 65.7 µM; with human blood platelets (read-out: Ia50 (compound concentrations affecting 50% inhibition of aggregation) ± S.E., Table II, ADP-induced, n = 5 for (0)I and 6 for all others) it was 41.4 ± 11.8 µM; in the test on human blood platelets (read-out: Ia50 ± S.E. ADP-Induced, table 3, ADP-induced (n = 5-6)), 41.4 µM.
